Columns and labels:
[1] = tested on: PBMC; assay: PBMC IL 17 stim. (Table 4, method not given); format: cell-based
[2] = tested on: B cell; assay: B cell diff. (Table 4, method not given); format: cell-based; conditions: B-cell
[3] = tested on: B-cells isolated from PBMC's; assay: Chymotrypsin-like ProteasomeGlo assay in B-cells isolated from PBMCs; format: cell-based, human; conditions: Homo sapiens; B-cells isolated from PBMC's; read-out: Pglo B-Cell
Procedure, shortened: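 Human B-cells were negatively isolated from buffy-coat PBMCs by density gradient, RBC lysis and Miltenyi magnetic separation. Cells were plated and compounds added by acoustic transfer after 1:100 dilution, with DMSO controls and medium-only wells. Chymotrypsin-like proteasome activity was read by luminescent ProteasomeGlo to derive IC50.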

[4] = tested on: Karpas cells; assay: Glo assay of Karpas cells (Table 3; ProteasomeGlo plating scheme); format: cell-based; conditions: read-out: Pglo Karpas
Procedure, shortened: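 Luminescent read-out of cellular chymotrypsin-like proteasome activity: cells exposed to compound 105 min at 37° C., 5% CO2, then given Suc-LLVY-Glo reagent, shaken 2-5 min and kept dark 10-15 min before reading. Values are IC50 [nM].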

| IC50 [2] [nM] | IC50 [4] [nM] | SMILES | IC50 [1] [nM] | IC50 [3] [nM] |
| --- | --- | --- | --- | --- |
| < 100 | – | Cc1ccc2cc1CNC(=O)[C@H](CCc1ccccc1)NC(=O)CCCCC(=O)N1CCCC(CCO2)C1 (stereo partly drawn) [Compound 16, (9S)-5^4-methyl-9-phenethyl-4-oxa-7,10-diaza-1(3,1)-piperidina-5(1,3)-benzenacyclohexadecaphane-8,11,16-trione] | < 100 | < 100 |
| < 100 | – | Cc1ccc2cc1CNC(=O)[C@H](CCc1ccccc1)NC(=O)[C@@H](Nc1ccccn1)CC(=O)N1CCCC(CCO2)C1 (stereo partly drawn) [Compound 36, (9S,12S)-5^4-methyl-9-phenethyl-12-(pyridin-2-ylamino)-4-oxa-7,10-diaza-1(3,1)-piperidina-5(1,3)-benzenacyclotetradecaphane-8,11,14-trione] | – | 100 to 500 |
| – | < 100 | COc1ccc(CC(=O)N[C@H]2CC(=O)N3CCCC(CCOc4ccc(C)c(c4)CNC(=O)[C@H](CCc4ccccc4)NC2=O)C3)cc1OC (stereo partly drawn) [Compound 63, 2-(3,4-dimethoxyphenyl)-N-((9S,12S)-5^4-methyl-8,11,14-trioxo-9-phenethyl-4-oxa-7,10-diaza-1(3,1)-piperidina-5(1,3)-benzenacyclotetradecaphane-12-yl)acetamide] | < 100 | < 100 |
| < 100 | – | Cc1ccc2cc1CNC(=O)[C@H](CCc1ccccc1)NC(=O)[C@@H](Nc1nc3ccccc3[nH]1)CC(=O)N1CCCC(CCO2)C1 (stereo partly drawn) [Compound 45, (9S,12S)-12-((1H-benzo[d]imidazol-2-yl)amino)-5^4-methyl-9-phenethyl-4-oxa-7,10-diaza-1(3,1)-piperidina-5(1,3)-benzenacyclotetradecaphane-8,11,14-trione] | – | 100 to 500 |
| – | 100 to 500 | Cc1ccc2cc1CNC(=O)[C@H](CCc1ccccc1)NC(=O)[C@@H](NC(=O)c1n[nH]c3ccccc13)CC(=O)N1CCCC(CCO2)C1 (stereo partly drawn) [Compound 60, N-((9S,12S)-5^4-methyl-8,11,14-trioxo-9-phenethyl-4-oxa-7,10-diaza-1(3,1)-piperidina-5(1,3)-benzenacyclotetradecaphane-12-yl)-1H-indazole-3-carboxamide] | – | 100 to 500 |
| – | 100 to 500 | Cc1ccc2cc1CNC(=O)[C@H](Cc1c[nH]c3ccccc13)NC(=O)CCC(=O)N1CCCC(CCO2)C1 (stereo partly drawn) [Compound 77, (9S)-9-((1H-indol-3-yl)methyl)-5^4-methyl-4-oxa-7,10-diaza-1(3,1)-piperidina-5(1,3)-benzenacyclotetradecaphane-8,11,14-trione] | – | 100 to 500 |
| < 100 | – | Cc1ccc2cc1CNC(=O)[C@H](CCc1ccccc1)NC(=O)[C@@H](N1C(=O)CCC1=O)CC(=O)N1CCCC(CCO2)C1 (stereo partly drawn) [Compound 43, (9S,12S)-12-(2,5-dioxopyrrolidin-1-yl)-5^4-methyl-9-phenethyl-4-oxa-7,10-diaza-1(3,1)-piperidina-5(1,3)-benzenacyclotetradecaphane-8,11,14-trione] | – | < 100 |
| < 100 | – | Cc1ccc2cc1CNC(=O)[C@H](CCc1ccccc1)NC(=O)[C@@H](NC(=O)c1ccncc1)CC(=O)N1CCCC(CCO2)C1 (stereo partly drawn) [Compound 42, N-((9S,12S)-5^4-methyl-8,11,14-trioxo-9-phenethyl-4-oxa-7,10-diaza-1(3,1)-piperidina-5(1,3)-benzenacyclotetradecaphane-12-yl)isonicotinamide] | – | < 100 |
| – | < 100 | Cc1ccc2cc1CNC(=O)[C@H](CCc1ccccc1)NC(=O)[C@@H](NC(=O)C1CCCc3ccccc31)CC(=O)N1CCCC(CCO2)C1 (stereo partly drawn) [Compound 82, N-((9S,12S)-5^4-methyl-8,11,14-trioxo-9-phenethyl-4-oxa-7,10-diaza-1(3,1)-piperidina-5(1,3)-benzenacyclotetradecaphane-12-yl)-1,2,3,4-tetrahydronaphthalene-1-carboxamide] | – | < 100 |
| 100 to 500 | – | Cc1ccc2cc1CNC(=O)[C@H](CCc1ccccc1)NC(=O)CCC(=O)N1CCCC(CCO2)C1 (stereo partly drawn) [Compound 13, (9S)-5^4-methyl-9-phenethyl-4-oxa-7,10-diaza-1(3,1)-piperidina-5(1,3)-benzenacyclotetradecaphane-8,11,14-trione] | – | < 100 |
| < 100 | – | Cc1ccc2cc1CNC(=O)[C@H](CCc1ccccc1)NC(=O)[C@@H](NS(C)(=O)=O)CC(=O)N1CCCC(CCO2)C1 (stereo partly drawn) [Compound 37, N-((9S,12S)-5^4-methyl-8,11,14-trioxo-9-phenethyl-4-oxa-7,10-diaza-1(3,1)-piperidina-5(1,3)-benzenacyclotetradecaphane-12-yl)methanesulfonamide] | – | < 100 |
| – | < 100 | Cc1ccc2cc1CNC(=O)[C@H](CCc1ccccc1)NC(=O)[C@@H](N)CC(=O)N1CCCC(CCO2)C1 (stereo partly drawn) [Compound 8, (9S,12S)-12-amino-5^4-methyl-9-phenethyl-4-oxa-7,10-diaza-1(3,1)-piperidina-5(1,3)-benzenacyclotetradecaphane-8,11,14-trione] | – | < 100 |
| – | 100 to 500 | Cc1ccc2cc1CNC(=O)[C@H](C)NC(=O)CCC(=O)N1CCCC(CCO2)C1 (stereo partly drawn) [Compound 78, (9S)-5^4,9-dimethyl-4-oxa-7,10-diaza-1(3,1)-piperidina-5(1,3)-benzenacyclotetradecaphane-8,11,14-trione] | – | 100 to 500 |
| – | < 100 | COc1ccc(CC(=O)N[C@H]2CC(=O)N3CCCC(CCOc4ccc(C)c(c4)CNC(=O)[C@H](CCc4ccccc4)NC2=O)C3)cc1 (stereo partly drawn) [Compound 83, 2-(4-methoxyphenyl)-N-((9S,12S)-5^4-methyl-8,11,14-trioxo-9-phenethyl-4-oxa-7,10-diaza-1(3,1)-piperidina-5(1,3)-benzenacyclotetradecaphane-12-yl)acetamide] | – | < 100 |

— patent US20240415819A1, “MACROCYCLIC COMPOUNDS AS PROTEASOME SUBUNIT BETA TYPE-5 INHIBITORS” (Lead Discovery Center GmbH, priority 2021, published 2024)
